We go through two molecules from publication PMC2972219, “Ionotropic Glutamate Receptor AMPA 1 Is Associated with Ovulation Rate” (PLoS ONE, 2010).

For one assay, the system named is LH release. Also noted: method as in PMID 9331548. The following applies: infusion into the third cerebral ventricle, ovariectomized estrogen-primed adult female rats; cited from earlier work.
Assay [1] has as its target GRIA1^Asn (brain membrane fraction of N/N cows). The assay is described as follows: [3H]AMPA ligand binding assay, membrane fractions from brain of N/N cows. Also noted: species or system bovine. As to conditions: saturation binding of [3H]AMPA 1-200 nM, n = 3. As to the method:
(§1) Membrane fractions were extracted from bovine brain as described previously, and 25 µg of protein were resolved by SDS-PAGE and transferred to polyvinylidene difluoride membranes. The blots were incubated with rabbit polyclonal antibody to GRIA1 (1∶1000, AB1504, Millipore, Tokyo, Japan) or actin (1∶200, A2066, Sigma-Aldrich, St. Louis, MO).
(§2) Protein (500 µg/ml) was used for a ligand binding assay with [^3H] AMPA (392.2 GBq/mmol, 1–200 nM) as described previously. Non-specific binding obtained by incubating 1 mM L- glutamate in the binding assay was subtracted from total binding to yield specific [^3H] AMPA- binding.

Assay [2] has as its target GRIA1^Ser (brain membrane fraction of S/S cows). In words: [3H]AMPA ligand binding assay, membrane fractions from brain of S/S cows. More on the design: species or system bovine. As to conditions: saturation binding of [3H]AMPA 1-200 nM, n = 3. The procedure:
as §1, §2

Assay [3] addresses GRIA1 (brain membrane fraction of S/N cows). In words: [3H]AMPA ligand binding assay, membrane fractions from brain of S/N cows. As to conditions: saturation binding of [3H]AMPA 1-200 nM, n = 3. More on the design: species or system bovine. As to the method:
as §1, §2

The test system of a further assay is GRIA1^Asn with GRIA2. The assay is described as follows: Whole-cell current responses in Xenopus oocytes coexpressing GRIA1^Asn with GRIA2. It is filed as cell-based, bovine. As to conditions: Xenopus oocytes expressing GRIA1^Asn coexpressed with GRIA2, n = 8; read-out: EC50 of current response. As to the method: (§3) Bovine GRIA1 mRNAs were synthesized using mMESSAGE mMACHINE® SP6 Kit (Applied Biosystems) and injected into Xenopus oocytes as described previously. Whole-cell current responses to 1, 3, 10, 30, 100, and 300 µM glutamate were recorded as described previously.

The next assay deals with T1, GRIA1^Ser (Bos taurus, UniProt G0T3G6).
T1 construct: expressed in transfected cells; host or cells: Xenopus oocytes (mRNA injection)
In words: Whole-cell current responses in Xenopus oocytes injected with GRIA1^Ser mRNA. As to conditions: Xenopus oocytes expressing GRIA1^Ser alone, glutamate 1-300 µM, n = 10; read-out: EC50 of current response. It is filed as cell-based, bovine. As to the method:
as §3

Assay [4] concerns GT1-7 cells expressing GRIA1^Ser. In words: GnRH release from GT1-7 cells expressing GRIA1 (enzyme immunoassay). Type of assay: cell-based, murine. The following applies: 100 µM glutamate for 30 min, GT1-7 cells expressing GRIA1^Ser compared with GRIA1^Asn. The procedure:
We amplified bovine GRIA1 that had been cloned into pTracer-nucGFP with primers GRIA1InFusionF and R and then switched into pCAGGS (N-R) using the In-Fusion™ Advantage PCR Cloning Kit (Takara Bio Inc., Shiga, Japan) to produce HA-tagged protein under the control of a ubiquitous strong promoter that was based on the β-actin promoter.
GT1-7 cells were cultured in six-well dishes coated with poly-L-ornithine (BD Biocoat [PLO/LM] 354658, Becton Dickinson and Company, Franklin Lakes, NJ) with conditioned-Dulbecco's modified Eagles medium (C-MEM), which was comprised of a 1∶1 mixture of conditioned medium from mouse embryonic astrocytes in primary culture and Dulbecco's modified Eagles medium with high glucose (Invitrogen) supplemented with 10% fetal calf serum, penicillin (100 U/ml), and streptomycin (100 µg/ml). When cells reached 90 % confluence, C-MEM was replaced with Opti-MEM (Invitrogen) and transfected with Lipofectamine 2000 (Invitrogen) for 24 h.
The next day, confluent GT1-7 cells were treated as described previously. The concentration of GnRH in the media was assayed using an LH-releasing hormone enzyme immunoassay kit (S-1217, Peninsula Laboratories, LLC, San Carlos, CA) according to the manufacturer's instructions.

Another assay deals with GRIA1^Ser with GRIA2. The assay is described as follows: Whole-cell current responses in Xenopus oocytes coexpressing GRIA1^Ser with GRIA2. Type of assay: cell-based, bovine. As to conditions: Xenopus oocytes expressing GRIA1^Ser coexpressed with GRIA2, n = 8; read-out: EC50 of current response. The procedure: as §3
A further assay has as its target T2, GRIA1^Asn (Bos taurus, UniProt G0T3G6, S306N).
T2 construct: expressed in transfected cells; host or cells: Xenopus oocytes (mRNA injection)
In words: Whole-cell current responses in Xenopus oocytes injected with GRIA1^Asn mRNA. Type of assay: cell-based, bovine. As to conditions: Xenopus oocytes expressing GRIA1^Asn alone, glutamate 1-300 µM, n = 9; read-out: EC50 of current response. As to the method:
as §3

T2 sequence (G0T3G6 19-906 S306N): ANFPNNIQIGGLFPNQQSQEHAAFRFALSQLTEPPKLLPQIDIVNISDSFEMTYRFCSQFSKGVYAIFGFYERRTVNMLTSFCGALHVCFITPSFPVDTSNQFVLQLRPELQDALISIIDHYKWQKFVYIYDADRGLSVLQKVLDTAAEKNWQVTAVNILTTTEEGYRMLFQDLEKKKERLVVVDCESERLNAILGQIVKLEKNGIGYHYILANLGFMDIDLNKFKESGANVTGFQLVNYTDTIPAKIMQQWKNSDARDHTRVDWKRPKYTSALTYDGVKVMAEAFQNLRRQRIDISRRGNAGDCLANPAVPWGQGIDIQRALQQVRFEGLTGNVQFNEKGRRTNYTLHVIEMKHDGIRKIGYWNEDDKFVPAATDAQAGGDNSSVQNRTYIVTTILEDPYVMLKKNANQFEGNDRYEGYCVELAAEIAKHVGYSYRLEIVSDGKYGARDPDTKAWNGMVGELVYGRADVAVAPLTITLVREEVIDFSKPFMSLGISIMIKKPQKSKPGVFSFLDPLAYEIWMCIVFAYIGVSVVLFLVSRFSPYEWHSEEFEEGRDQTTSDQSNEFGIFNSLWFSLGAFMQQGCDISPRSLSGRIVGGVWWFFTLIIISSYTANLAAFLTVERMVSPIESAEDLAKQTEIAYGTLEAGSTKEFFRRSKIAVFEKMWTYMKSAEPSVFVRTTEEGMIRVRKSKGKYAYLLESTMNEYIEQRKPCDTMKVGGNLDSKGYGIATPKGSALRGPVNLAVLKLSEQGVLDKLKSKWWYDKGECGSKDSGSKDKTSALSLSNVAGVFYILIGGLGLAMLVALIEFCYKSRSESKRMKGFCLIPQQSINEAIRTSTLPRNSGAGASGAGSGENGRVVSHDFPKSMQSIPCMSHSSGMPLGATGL
T1 sequence (G0T3G6 19-906): as the sequence (G0T3G6 19-906 S306N) above, with N288S counted along it

Turning to `Cc1o[nH]c(=O)c1CC(N)C(=O)O` (stereo not drawn) [AMPA], the LH release entry in the assay on LH release is recorded as “induces LH release”. Also, the values for the dissociation constant Kd in assay [1], in assay [2] and in [3] were 59.6 nM, 27.7 nM and 43.6 nM, respectively.

In the case of `N[C@@H](CCC(=O)O)C(=O)O` [glutamate], the half-maximal effective concentration (EC50) worked out at 10.4 µM with GRIA1^Asn with GRIA2, 4.5 µM on GRIA1^Ser, 4.9 µM with GRIA1^Ser with GRIA2 and 10.7 µM at GRIA1^Asn. For the same molecule, the GnRH release entry in [4] is reported as “induced the release of more GnRH than that from cells expressing GRIA1^Asn”.

Broadly, the Kd is the concentration at which binding is half-saturated. Read a low Kd as higher affinity. By EC50 is commonly meant the midpoint of the concentration-response curve.
